Measured values from patent US12291494B2, “Methods of treating fibrosis” (Nogra Pharma Limited, priority 2012, dated 2025).

Columns and labels:
α-SMA = assay: Liver gene expression by quantitative Real Time PCR: α-SMA; assay type: in vivo, mice; conditions: liver mRNA, normalized to β-actin; CCl4 group 65.51 ± 22.24
Procedure: The effect of administration of compound 34 (GED) and the specific CB2 agonist (JWH-133) was evaluated on the level of gene expression of cytokines (IL-1β, TNF-α) and genes involved in the mechanism of fibrosis by quantitative Real Time PCR.
Total RNA was isolated from livers using Rneasy kit (Macherey Nagel, Hoerdt, France) according to the manufacturer's instructions. RNA quantification was performed using spectrophotometry. After treatment at 37° C. for 30 min with 20-50 units of RNase-free DNase I (Roche Diagnostics Corporation, Indianapolis, IN, USA), oligo-dT primers (Roche Diagnostics Corporation, Indianapolis, USA) were used to synthesize single-stranded cDNA. mRNAs were quantified using SYBR green Master Mix (Applera, Courtaboeuf, France) with murine specific oligonucleotides (see Table 2) in a GeneAmp Abiprism 7000 (Applera, Courtaboeuf, France). In each assay, calibrated and no-template controls were included. Each sample was run in triplicate. SYBR green dye intensity was analyzed using the Abiprism 7000 SDS software (Applera, Courtaboeuf, France). All results were normalized to the unaffected housekeeping gene β-actin.

C57bl6 mice [1] = assay: DSS intestinal fibrosis study (Ex. 5/6): colon ratio weight/size; assay type: in vivo
Procedure: This example describes an experiment to evaluate the effect of compound 34 on intestinal fibrosis. Chronic colitis was induced in C57bl6 mice by 3 cycles of 2.5% DSS (40,000-50,000 MW, TdB consultancy AB, Sweden) dissolved in sterile drinking water for 5 days followed by 7 days of regular drinking water.
Compound 34 was used at its optimal dosage (30 mM) and administered by oral gavage daily after the second cycle of DSS and until euthanasia. Mice receiving DSS were checked twice a week for development of colitis by monitoring body weight. Euthanasia of mice was performed one week after the third cycle of DSS (see FIG. 5). Evaluation of the size and weight of the colon was evaluated post mortem.
Intestinal fibrosis is characterized by a shortening and thickening of the colon and adherences. The measure of the ratio weight/size of the colon is an indicator of the level of inflammation and fibrosis. […] Compound 34 causes a 34% reduction in the profibrotic effect of DSS leading to a significant decrease ratio weight/size of the colon of 38.13±7.82 vs 44.98±6.31 (p<0.05) compared to DSS mice receiving the vehicle (FIG. 6A). Accordingly, it reduces the morphological signs of fibrosis such as the shortening and the thickening of the colon and it decreases the collagen deposit in the colon (FIG. 6B).

Collagen I = assay: DSS intestinal fibrosis study: Western blot of colon, Collagen I; assay type: in vivo, mice; conditions: whole colon, OD normalized with GAPDH, expressed as percentage of control groups; DSS 284.4 ± 63.86; listed as GED
Procedure: (§1) For the Western blot analysis, 0.5 cm of frozen colonic samples were homogenized in RIPA Buffer containing 50 mM Tris HCl pH 7.6, 150 mM NaCl, 1.5 mM MgCl2, 5 mM EDTA, 1% Triton-X and 10% Glycerol, supplemented with 100 mM Sodium Fluoride (NaF), 2 mM Sodium Orthovanadate (Na3VO4), 10 mM Sodium Pyrophosphate (NaPPi), 1 mM phenylmethanesulphone (PMSF) and a classical protease-inhibitor cocktail containing 10 μg/mL Leupeptin and Aprotinin.
(§2) For each sample, 30 μg of protein was separated by PAGE and electroblotted. Nitrocellulose membranes (100% pure) were incubated (according with a specific protocol for each antibody) with primary antibodies directed against CTGF, Collagen-I and GAPDH (purchased from Abcam, Cambridge, UK; 1:1000 for 2 h at RT), diluted in 5% non-fat milk in 0.1% TBS-t. […] Optical density of target bands was determined using a computer-assisted densitometer and the ImageJ public domain software (W. S., Rasband, ImageJ, U. S. National Institutes of Health, Bethesda, MD; http://rsb.info.nih.gov/ij/, 1997-2011). Tissue levels were expressed as units of Optical Density (OD) per quantity of total proteins, normalized with internal control GAPDH and the results were expressed as percentage of control groups.

C57bl6 mice [2] = assay: DSS intestinal fibrosis study: level of fibrosis by Picrosirius red staining; assay type: in vivo; conditions: colon; DSS vehicle 2.27±0.12, control 1.12±0.07
Procedure: Samples of colon obtained were promptly fixed with 10% buffered formalin in PBS (pH 7.4) for 3 h, dehydrated in graded ethanol and embedded in low-temperature-fusion paraffin. Formalin-fixed colonic tissue was processed and 5 μm thick paraffin sections were stained with Picrosirius red staining for histological analysis. Pictures were obtained with a ×20 objective. Each section was analyzed blindly by 3 different experimenters for the quantification of the degree of fibrosis using a score from 0 to 4.

IL-13 = assay: DSS intestinal fibrosis study: Western blot of colon, IL-13; assay type: in vivo, mice; conditions: whole colon, OD normalized with GAPDH, expressed as percentage of control groups; DSS 189.5 ± 28.71; listed as GED
Procedure: as §1, §2

Q: How did the α-SMA (α-SMA) turn out when COC(Cc1ccc(N)cc1)C(=O)O (racemic) [Compound 34, (±)-2-methoxy-3-(4′-aminophenyl) propionic acid] was run?
A: 42.81 ± 14.81

Q: What about the “ratio weight/size of the colon” value (C57bl6 mice [1]; compound 34 30 mM 200 uL oral gavage daily day 13-36, DSS vehicle 44.98±6.31, control 20.11±3.91) of the same compound?
A: 38.13±7.82

Q: And the “reduction in the profibrotic effect of DSS (colon ratio weight/size)” value (C57bl6 mice [1]; compound 34 30 mM oral gavage)?
A: 34%

Q: What about the “Collagen I (Western blot)” value (Collagen I) of the same compound?
A: 90.75±19.91

Q: What about the “level of fibrosis, score from 0 to 4 (Picrosirius red)” value (C57bl6 mice [2]) of the same compound?
A: 1.625±0.15

Q: What about the “IL-13 (Western blot)” value (IL-13) of the same compound?
A: 88.88±14.01
